Assays:
[1] = molecular target: T1, postsynaptic dopamine D2 receptors (Rattus norvegicus, UniProt P61169); settings: healthy rodents; cited from earlier work
T1 construct: host or cells: healthy rodent brain in vivo

[2] = molecular target: human GPR84-Gαi2 fusion protein (Homo sapiens, UniProt Q9NQS5); assay: [3H]G9543 competition binding assay, membranes from Flp-In TREx 293 cells; settings: competition with [3H]G9543; read-out: Kd (affinity for GPR84)
Description: To determine KD of GLPG38, a competitive binding assay was performed using a membrane preparation from cells expressing GPR84-Gi in addition to [^3H]G9543, a known GPR84 antagonist. [^11C]GLPG38 was then radiosynthesized via [^11C]methylation of desmethyl precursor using [^11C]methyl iodide. […] For animal studies, sepsis was induced in female C57BL/6J mice via intraperitoneal injection of lipopolysaccharide (LPS, 10 mg/kg); vehicle-treated mice were injected with saline alone. Dynamic 60 min PET/CT imaging was performed 24 hr following LPS-administration using [^11C]GLPG38. Subsequently, mice were perfused with PBS to remove blood, and radioactive signal was assessed in CNS and peripheral tissues via gamma counting. Ex vivo autoradiography of sagittal mouse brain sections was conducted to obtain high resolution images of [^11C]GLPG38 binding. To investigate alterations in GPR84 mRNA expression, quantitative polymerase-chain reaction was performed using mouse brain tissue and human monocyte-derived macrophage cells stimulated with LPS 24 hr prior to RNA extraction.

[3] = molecular target: T2, CSF1R (Mus musculus, UniProt P09581); settings: LPS 10 mg/kg; cited from earlier work
T2 construct: host or cells: mouse brain in vivo, LPS 10 mg/kg
T2 sequence (P09581 20-977): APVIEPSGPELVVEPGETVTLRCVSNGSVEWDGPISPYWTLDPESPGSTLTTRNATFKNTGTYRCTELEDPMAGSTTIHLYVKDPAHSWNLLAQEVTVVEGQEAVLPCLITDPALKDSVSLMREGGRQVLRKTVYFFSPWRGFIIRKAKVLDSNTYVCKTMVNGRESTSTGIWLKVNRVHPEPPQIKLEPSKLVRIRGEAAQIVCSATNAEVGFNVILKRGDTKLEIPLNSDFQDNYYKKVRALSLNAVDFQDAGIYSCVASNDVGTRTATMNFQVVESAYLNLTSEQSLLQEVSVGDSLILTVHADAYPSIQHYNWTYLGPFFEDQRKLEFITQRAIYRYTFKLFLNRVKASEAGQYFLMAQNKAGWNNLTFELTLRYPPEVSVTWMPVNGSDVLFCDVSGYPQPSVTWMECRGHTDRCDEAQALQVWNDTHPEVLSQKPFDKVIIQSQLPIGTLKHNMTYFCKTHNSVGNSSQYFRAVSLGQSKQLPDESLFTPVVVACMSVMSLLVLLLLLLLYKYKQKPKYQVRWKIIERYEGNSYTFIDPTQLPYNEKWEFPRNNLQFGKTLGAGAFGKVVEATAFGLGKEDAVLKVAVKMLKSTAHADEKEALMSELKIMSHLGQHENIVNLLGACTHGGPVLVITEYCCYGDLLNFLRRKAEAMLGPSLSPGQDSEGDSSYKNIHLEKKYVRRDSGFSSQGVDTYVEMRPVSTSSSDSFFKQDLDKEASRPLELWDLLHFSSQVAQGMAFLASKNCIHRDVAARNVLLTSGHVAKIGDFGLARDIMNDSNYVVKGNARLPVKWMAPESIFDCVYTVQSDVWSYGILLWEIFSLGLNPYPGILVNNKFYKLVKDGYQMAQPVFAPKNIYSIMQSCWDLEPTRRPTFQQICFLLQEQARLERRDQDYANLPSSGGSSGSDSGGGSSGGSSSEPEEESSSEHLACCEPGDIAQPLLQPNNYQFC

[4] = molecular target: T3, purinergic receptor subtype 7 (P2×7) (Mus musculus, UniProt Q9Z1M0); settings: LPS 5 mg/kg; cited from earlier work
T3 construct: host or cells: mouse brain in vivo, LPS 5 mg/kg
T3 sequence (Q9Z1M0 1-595): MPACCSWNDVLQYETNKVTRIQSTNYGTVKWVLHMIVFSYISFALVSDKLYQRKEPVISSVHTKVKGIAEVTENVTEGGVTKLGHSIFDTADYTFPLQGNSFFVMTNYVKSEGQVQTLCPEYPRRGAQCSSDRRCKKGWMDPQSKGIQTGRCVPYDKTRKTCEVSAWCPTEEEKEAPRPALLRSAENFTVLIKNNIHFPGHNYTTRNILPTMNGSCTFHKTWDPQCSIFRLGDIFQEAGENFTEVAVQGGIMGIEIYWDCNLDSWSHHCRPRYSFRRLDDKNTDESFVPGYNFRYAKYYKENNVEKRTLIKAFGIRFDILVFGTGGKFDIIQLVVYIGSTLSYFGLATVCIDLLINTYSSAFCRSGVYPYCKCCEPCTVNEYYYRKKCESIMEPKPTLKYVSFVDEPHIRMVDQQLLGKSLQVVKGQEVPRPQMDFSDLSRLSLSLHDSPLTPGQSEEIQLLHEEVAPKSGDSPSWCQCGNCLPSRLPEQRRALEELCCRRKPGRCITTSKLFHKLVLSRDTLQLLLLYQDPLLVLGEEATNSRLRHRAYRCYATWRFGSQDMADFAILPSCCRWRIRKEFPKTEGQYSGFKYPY

[5] = Dynamic 60 min PET/CT of healthy mice, whole-brain time activity curve; format: in vivo, mouse; settings: healthy mice
Excerpt: A transmission scan was acquired to correct for attenuation during image reconstruction. Following PET imaging, mice were transferred to a SOFIE GNEXT PET/CT for CT acquisition. PET/CT data were co-registered and analyzed using Inveon Research Workplace software to generate images and quantify radiotracer uptake in regions of interest (ROIs). A 3D ROI was manually defined for the whole brain using CT data as anatomical reference, then applied to the full dynamic data set to generate a time activity curve (TAC).
(§1) The count densities were averaged for all volumes of interest at each time point to obtain a time-activity curve (TAC). The TACs were normalized to injected dose, as measured by a CRC-15 PET dose calibrator (Capintec Inc.), and expressed as % injected dose per gram (% ID/g), assuming 1 g/mL. CT was performed in GNEXT depth of interaction (DOI) dual-layer detector system. Scintica VivoQuant software was used to visualize radiotracer uptake and define the 3D volumes of interest. 3D maximum intensity projection (MIP) PET/CT images were created using IRW software.
On days 15-16 after EAE induction, mice were catheterized and placed on the 4-mouse scanning bed of the Sofie GNEXT PET/CT scanner.

[6] = molecular target: T4, GPR84 (Mus musculus, UniProt Q8CIM5); assay: Dynamic PET/CT of brain in LPS-induced systemic inflammation vs saline, with or without GLPG1205 block; format: in vivo; settings: LPS 5 mg/kg
T4 construct: tissue Jackson Laboratories; host or cells: female C57BL/6J mice (LPS, saline, EAE or naive): brain, spinal cord and peripheral organs
Description: (§2) To determine KD of GLPG38, a competitive binding assay was performed using a membrane preparation from cells expressing GPR84-Gi in addition to [^3H]G9543, a known GPR84 antagonist. [^11C]GLPG38 was then radiosynthesized via [^11C]methylation of desmethyl precursor using [^11C]methyl iodide. […] Dynamic 60 min PET/CT imaging was performed 24 hr following LPS-administration using [^11C]GLPG38. Subsequently, mice were perfused with PBS to remove blood, and radioactive signal was assessed in CNS and peripheral tissues via gamma counting. Ex vivo autoradiography of sagittal mouse brain sections was conducted to obtain high resolution images of [^11C]GLPG38 binding. To investigate alterations in GPR84 mRNA expression, quantitative polymerase-chain reaction was performed using mouse brain tissue and human monocyte-derived macrophage cells stimulated with LPS 24 hr prior to RNA extraction.
as §1
A range of doses (0.65, 0.75, and 0.90 mg/kg) of GLPG1205 were used to investigate whether the blocking was dose-dependent. […] GLPG1205 was injected intra-venously 10 min prior to radiotracer injection (n=4).

[7] = molecular target: T4, GPR84; assay: Ex vivo biodistribution (gamma counting) of GPR84 tracer in LPS- vs saline-treated mice; settings: 20 min post injection
Description: FIGS. 11A-11B show ex vivo biodistribution and autoradiography. […] At 20 min postinjection, animals were perfused with saline and tissues were collected, weighed, and gamma-counted. […] Statistical analysis was performed using “Unpaired t test with Welch correction”, *=P<0.05. […] Cb=cerebellum, Ctx=cortex, Str=striatum, H=hippocampus, Mb=midbrain, Ob=olfactory bulb, and BS=brain stem.
as §2

[8] = molecular target: T4, GPR84; assay: Ex vivo autoradiography of brain sections from LPS-treated mice; format: in vivo; settings: GLPG1205 5 mg/kg ([11C]GLPG38) or 1 mg/kg (11C-MGX-10S)
Description: To determine KD of GLPG38, a competitive binding assay was performed using a membrane preparation from cells expressing GPR84-Gi in addition to [^3H]G9543, a known GPR84 antagonist. [^11C]GLPG38 was then radiosynthesized via [^11C]methylation of desmethyl precursor using [^11C]methyl iodide. Binding specificity of [^11C]GLPG38 was assessed using human GPR84-stably-expressing human embryonic kidney cells (HEK-293) versus control HEK-293 cells. For animal studies, sepsis was induced in female C57BL/6J mice via intraperitoneal injection of lipopolysaccharide (LPS, 10 mg/kg); vehicle-treated mice were injected with saline alone. Dynamic 60 min PET/CT imaging was performed 24 hr following LPS-administration using [^11C]GLPG38. Subsequently, mice were perfused with PBS to remove blood, and radioactive signal was assessed in CNS and peripheral tissues via gamma counting. Ex vivo autoradiography of sagittal mouse brain sections was conducted to obtain high resolution images of [^11C]GLPG38 binding. To investigate alterations in GPR84 mRNA expression, quantitative polymerase-chain reaction was performed using mouse brain tissue and human monocyte-derived macrophage cells stimulated with LPS 24 hr prior to RNA extraction.
Ex vivo Audoradiography Confirms ^11C-MGX-10S Specificity.

[9] = Description: In vivo stability assay. […] Mice were perfused with PBS buffer (20 mL) under deep anesthesia (5 min, 20 min). The whole brain and liver lobe were removed from mouse place in two separate […] microcentrifuge tubes containing 500 μL acetonitrile, homogenized sample and placed on ice. The well-homogenized samples were transferred to two 1.5 mL microcentrifuge tubes, centrifuged at 9,400 g for 4 min at room temperature. Supernatants were transferred into gamma counting tubes; the pellets were transferred into separate tubes. All supernatants and pellets were counted using gamma counter to measure extraction efficiency. Each of the supernatant (150-200 μL) was transferred into HPLC vials with the inserts and injected into HPLC for radio-metabolic analysis.
At 5 and 20 min post-tracer injection, the analysis of the whole brain and liver was performed using analytical HPLC to assess the presence of potential radiometabolites.

[10] = molecular target: T5, synaptic vesicle glycoprotein 2A receptor (Mus musculus, UniProt Q9JIS5); settings: cited from earlier work
T5 construct: host or cells: healthy mouse brain in vivo
T5 sequence (Q9JIS5 whole entry): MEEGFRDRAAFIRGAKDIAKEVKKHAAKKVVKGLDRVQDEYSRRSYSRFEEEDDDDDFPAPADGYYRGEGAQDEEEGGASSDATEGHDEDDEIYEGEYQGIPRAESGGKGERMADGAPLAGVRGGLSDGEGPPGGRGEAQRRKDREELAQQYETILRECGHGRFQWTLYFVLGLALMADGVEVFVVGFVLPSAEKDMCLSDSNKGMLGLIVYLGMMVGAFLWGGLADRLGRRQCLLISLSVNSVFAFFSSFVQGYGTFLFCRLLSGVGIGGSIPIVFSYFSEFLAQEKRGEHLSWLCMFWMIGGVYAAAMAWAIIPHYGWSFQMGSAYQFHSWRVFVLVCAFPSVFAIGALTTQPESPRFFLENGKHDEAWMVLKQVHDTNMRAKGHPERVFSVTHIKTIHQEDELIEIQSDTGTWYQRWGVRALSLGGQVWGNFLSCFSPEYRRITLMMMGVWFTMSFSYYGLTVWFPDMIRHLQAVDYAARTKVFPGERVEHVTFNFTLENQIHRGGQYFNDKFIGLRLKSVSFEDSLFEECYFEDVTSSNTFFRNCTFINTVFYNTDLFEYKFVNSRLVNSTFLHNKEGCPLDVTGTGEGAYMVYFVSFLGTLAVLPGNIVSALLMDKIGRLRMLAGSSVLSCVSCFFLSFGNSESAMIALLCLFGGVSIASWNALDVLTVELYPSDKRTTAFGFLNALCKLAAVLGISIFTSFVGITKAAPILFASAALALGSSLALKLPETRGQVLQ

T4 sequence (Q8CIM5 whole entry): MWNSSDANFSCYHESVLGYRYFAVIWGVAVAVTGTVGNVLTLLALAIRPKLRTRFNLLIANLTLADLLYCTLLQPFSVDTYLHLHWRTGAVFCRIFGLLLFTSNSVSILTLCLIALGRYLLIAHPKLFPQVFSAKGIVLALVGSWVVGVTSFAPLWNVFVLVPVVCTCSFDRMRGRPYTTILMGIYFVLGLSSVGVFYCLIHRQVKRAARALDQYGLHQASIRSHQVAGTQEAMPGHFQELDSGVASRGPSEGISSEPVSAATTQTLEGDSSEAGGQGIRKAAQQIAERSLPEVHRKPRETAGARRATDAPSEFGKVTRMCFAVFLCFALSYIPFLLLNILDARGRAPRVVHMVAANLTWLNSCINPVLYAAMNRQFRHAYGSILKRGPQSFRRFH
T1 sequence (P61169 whole entry): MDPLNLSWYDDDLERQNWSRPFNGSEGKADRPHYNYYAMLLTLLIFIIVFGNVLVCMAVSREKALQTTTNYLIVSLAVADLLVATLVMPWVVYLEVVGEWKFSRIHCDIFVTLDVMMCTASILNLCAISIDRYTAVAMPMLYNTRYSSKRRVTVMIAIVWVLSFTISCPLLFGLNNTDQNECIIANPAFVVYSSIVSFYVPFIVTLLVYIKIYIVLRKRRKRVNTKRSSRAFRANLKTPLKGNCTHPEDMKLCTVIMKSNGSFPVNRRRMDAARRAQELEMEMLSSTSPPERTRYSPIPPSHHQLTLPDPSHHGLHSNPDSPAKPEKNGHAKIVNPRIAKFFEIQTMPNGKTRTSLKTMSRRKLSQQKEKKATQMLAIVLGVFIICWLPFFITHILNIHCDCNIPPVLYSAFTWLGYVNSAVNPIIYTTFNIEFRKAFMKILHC
Chain of human GPR84-Gαi2 fusion protein (Q9NQS5 whole entry, the tested form may be a part): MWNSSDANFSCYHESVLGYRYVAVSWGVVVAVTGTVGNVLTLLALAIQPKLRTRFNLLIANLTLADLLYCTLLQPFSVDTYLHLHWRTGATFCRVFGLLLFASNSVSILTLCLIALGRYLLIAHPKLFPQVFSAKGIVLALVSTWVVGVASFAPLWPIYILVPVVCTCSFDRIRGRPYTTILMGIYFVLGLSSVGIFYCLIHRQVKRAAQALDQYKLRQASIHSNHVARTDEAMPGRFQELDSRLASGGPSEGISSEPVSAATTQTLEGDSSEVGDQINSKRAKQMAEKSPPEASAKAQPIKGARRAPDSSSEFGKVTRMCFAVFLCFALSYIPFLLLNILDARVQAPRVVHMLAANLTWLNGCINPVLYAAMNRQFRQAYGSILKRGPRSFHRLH

Structure (SMILES): CCN1CCC[C@H]1CNC(=O)c1c(O)c(Cl)cc(Cl)c1O[11CH3] (racemic) [^11C-Raclopride]
- Brain 5 min/60 min ratio [1]: ~2
- time of maximum brain uptake [1]: 5 min

Structure (SMILES): COc1cc2c(cc1C)-c1c(C)c(OC[C@@H]3COCCO3)cc(=O)n1CC2 [GLPG38]
- Kd [2]: 11.8 nM

Structure (SMILES): CN1CCN(c2ccc(NC(=O)c3ccc(C#N)o3)c(N3CCCCC3)c2)CC1 [^11C-CPPC, [11C]5-Cyano-N-(4-(4-Methylpiperazin-1-YI)-2-(Piperidin-1-YI)Phenyl)Furan-2-Carboxamide]
- higher binding in mouse brain, LPS vs control animal [3]: 55%

Structure (SMILES): [11CH3]N1C(=O)CC[C@H]1C(=O)NCc1cccc(C(F)(F)F)c1Cl [^11C-GSK1482160]
- fold higher binding in brain, LPS vs saline-treated mice [4]: 3.2 fold

Structure (SMILES): [11CH3]Oc1ccc2c(c1)CCn1c-2cc(OC[C@@H]2COCCO2)nc1=O [^11C-MGX-10S]
- time of peak brain uptake [5]: ≤ 22.5 s
- whole-brain uptake after washout, end of 60 min scan [5]: 1.89±0.35 % ID/g
- peak whole-brain uptake ([5]; 60 min dynamic scan): 5.90±0.89 % ID/g
- reduction of brain PET signal in LPS mice by GLPG1205 at end of scan ([6]; GLPG1205 0.65 mg/kg i.v. 10 min before tracer): 38.50%
- increase in whole-brain radiotracer uptake, LPS vs saline, 30-60 min integration [6]: approximately 39.27%
- higher brain accumulation in LPS vs saline-treated mice at end of scan ([6]; 60 min dynamic PET): 42.46%
- adipose tissue uptake, saline-treated mice [7]: 0.63±0.15 % ID/g
- kidney uptake, saline-treated mice [7]: 5.32±3.01 % ID/gram
- liver uptake, saline-treated mice [7]: 4.51±0.15 % ID/gram
- brain uptake, saline-treated mice ([7]; perfused): 0.45±0.06 % ID/g
- adipose tissue uptake, LPS-treated mice ([7]; LPS 5 mg/kg): 1.16±0.50 % ID/g
- kidney uptake, LPS-treated mice ([7]; LPS 5 mg/kg): 8.73±3.18 % ID/gram
- liver uptake, LPS-treated mice ([7]; LPS 5 mg/kg): 7.08±1.27 % ID/gram
- brain uptake, LPS-treated mice ([7]; LPS 5 mg/kg, perfused): 0.84±0.21 % ID/gram
- tracer binding in LPS brain sections after pre-blocking with GLPG1205 [8]: dramatic reduction
- radiometabolite M1 in brain at 20 min post injection ([9]; HPLC): 3%
- radiometabolite M1 in liver at 20 min post injection ([9]; HPLC): 10%
- intact radiotracer in liver at 20 min post injection ([9]; LPS-treated mice): 90%
- intact radiotracer in liver, initial (5 min) ([9]; LPS-treated mice): 100%
- intact radiotracer in brain at 5 min post injection ([9]; LPS-treated mice, n=3): 100%
- intact radiotracer in brain at 20 min post injection ([9]; LPS-treated mice, n=3): 97%

Structure (SMILES): [11CH3]c1cnccc1CN1C[C@@H](c2cc(F)c(F)c(F)c2)CC1=O [^11C-UCBJ]
- Brain 15 min/90 min ratio ([10]; healthy mouse brain): ~3
- time of maximum brain uptake ([10]; healthy mouse): 15 min

Reference: patent US20260091147A1, “METHOD FOR DETECTING INNATE IMMUNE ACTION IN VIVO USING GPR84-PET” (The Board of Trustees of the Leland Standford Junior …, priority 2023, published 2026)
